Measurements: ChEMBL document CHEMBL5705903, “A DNA Hypomethylation Signature Predicts Antitumor Activity of LSD1 Inhibitors in SCLC” (Cancer Cell, 2015)
Active and inactive are the calls of the source. The rule behind the calls is not given here.

How the values were obtained:
D-amino-acid oxidase = D-amino-acid oxidase (Homo sapiens, UniProt P14920); experiment: Binding affinity to D-amino acid oxidase (unknown origin) assessed as apparent inhibition constant; conditions: read-out: Ki(app)
[1] = AUC (0 to last) in mouse blood at 5 mg/kg, po by HPLC/MS/MS analysis; format: ADME, organism-based
[2] = Half life in mouse blood at 5 mg/kg, po by HPLC/MS/MS analysis; format: ADME, organism-based
[3] = Toxicity in mouse xenografted with human NCI-H526 cells assessed as grooming behaviour at 1.5 mg/kg, po administered daily measured for 30 days; format: organism-based; conditions: in vivo, 720 h, time 30 day
[4] = Toxicity in mouse xenografted with human NCI-H1417 cells assessed as grooming behaviour at 1.5 mg/kg, po administered daily measured for 30 days; format: organism-based; conditions: in vivo, 720 h, time 30 day
[5] = Effect on cleaved PARP level in human NCI-H1417 cells assessed as fold change at 1000 nM measured after 7 days by Western blot analysis (reference value: 1.00); format: functional; conditions: time 7 day
[6] = Effect on cleaved PARP level in human NCI-H526 cells assessed as relative expression at 1000 nM measured after 14 days by Western blot analysis (reference value: 0.66); format: functional; conditions: time 14 day
[7] = Effect on cleaved PARP level in human NCI-H524 cells assessed as relative expression at 1000 nM measured after 14 days by Western blot analysis (reference value: […]); format: functional; conditions: time 14 day
[8] = Effect on cleaved PARP level in human COLO-668 cells assessed as relative expression at 100 nM measured after 7 days by Western blot analysis (reference value: […]); format: functional; conditions: time 7 day
[9] = Effect on cleaved PARP level in human COLO-668 cells assessed as relative expression at 10 nM measured after 14 days by Western blot analysis (reference value: 3.50); format: functional; conditions: time 14 day
[10] = Effect on cleaved PARP level in human COLO-668 cells assessed as fold change at 10 nM measured after 7 days by Western blot analysis (reference value: 1.00); format: functional; conditions: time 7 day
[11] = Effect on cleaved PARP level in human COLO-668 cells assessed as fold change at 100 nM measured after 10 days by Western blot analysis (reference value: 1.00); format: functional; conditions: time 10 day
[12] = Effect on cleaved PARP level in human COLO-668 cells assessed as fold change at 10 nM measured after 14 days by Western blot analysis (reference value: 1.00); format: functional; conditions: time 14 day
[13] = Effect on cleaved PARP level in human NCI-H1694 cells assessed as relative expression at 100 nM measured after 7 days by Western blot analysis (reference value: 0.25); format: functional; conditions: time 7 day
[14] = Effect on cleaved PARP level in human NCI-H1694 cells assessed as relative expression at 10 nM measured after 10 days by Western blot analysis (reference value: 0.31); format: functional; conditions: time 10 day
[15] = Effect on cleaved PARP level in human NCI-H1694 cells assessed as fold change at 100 nM measured after 7 days by Western blot analysis (reference value: 1.00); format: functional; conditions: time 7 day
[16] = Effect on cleaved PARP level in human NCI-H69 cells assessed as relative expression at 10 nM measured after 10 days by Western blot analysis (reference value: 0.03); format: functional; conditions: time 10 day
[17] = Effect on cleaved PARP level in human NCI-H69 cells assessed as relative expression at 100 nM measured after 10 days by Western blot analysis (reference value: 0.03); format: functional; conditions: time 10 day
[18] = Effect on cleaved PARP level in human NCI-H69 cells assessed as relative expression at 1000 nM measured after 10 days by Western blot analysis (reference value: 0.03); format: functional; conditions: time 10 day
[19] = Effect on cleaved PARP level in human NCI-H69 cells assessed as fold change at 10 nM measured after 14 days by Western blot analysis (reference value: 1.00); format: functional; conditions: time 14 day
[20] = Effect on cleaved PARP level in human NCI-H510 cells assessed as relative expression at 100 nM measured after 14 days by Western blot analysis (reference value: 0.01); format: functional, NCI-H510A; conditions: time 14 day
[21] = Effect on cleaved PARP level in human NCI-H889 cells assessed as fold change at 1000 nM measured after 7 days by Western blot analysis (reference value: 1.00); format: functional; conditions: time 7 day
[22] = Effect on cleaved PARP level in human NCI-H889 cells assessed as fold change at 10 nM measured after 10 days by Western blot analysis (reference value: 1.00); format: functional; conditions: time 10 day
[23] = Effect on cleaved PARP level in human NCI-H2171 cells assessed as relative expression at 100 nM measured after 10 days by Western blot analysis (reference value: 0.02); format: functional; conditions: time 10 day
[24] = Effect on cleaved PARP level in human NCI-H2171 cells assessed as fold change at 10 nM measured after 10 days by Western blot analysis (reference value: 1.00); format: functional; conditions: time 10 day
[25] = Effect on cleaved PARP level in human NCI-H146 cells assessed as relative expression at 10 nM measured after 7 days by Western blot analysis (reference value: […]); format: functional; conditions: time 7 day
[26] = Toxicity in rat assessed as suppression of erythroid maturation in bone marrow measured for 28 days; conditions: in vivo, 672 h, time 28 day
[27] = Toxicity in dog assessed as suppression of neutrophil in bone marrow measured for 28 days; format: cell-based, Canis lupus familiaris; conditions: 672 h, time 28 day
[28] = Toxicity in dog assessed as suppression of erythroid maturation in bone marrow measured for 28 days; design: species or system Canis lupus familiaris; conditions: in vivo, 672 h, time 28 day
[29] = Toxicity in dog assessed as congestion in lymphoid organs measured for 28 days; design: species or system Canis lupus familiaris; conditions: in vivo, 672 h, time 28 day
NCI-H69 = experiment: Antitumor activity against human NCI-H69 cells xenografted in nude mouse assessed as tumor growth inhibition at 1.5 mg/kg, po administered daily measured twice weekly relative to control; format: functional; conditions: read-out: TGI
NCI-H1417 = experiment: Antitumor activity against human NCI-H1417 cells xenografted in nude mouse assessed as tumor growth inhibition at 1.5 mg/kg, po administered daily measured twice weekly relative to control; format: functional; conditions: read-out: TGI
NCI-H526 [30] = experiment: Effect on NSE gene expression in human NCI-H526 cells at 1 uM measured after 4 to 7 days by qRT-PCR analysis; format: functional, cell-based; conditions: time 4-7 day
COLO-668 = experiment: Effect on SYP gene expression in human COLO-668 cells at 1 uM measured after 4 days by qRT-PCR analysis; format: functional, cell-based; conditions: time 4.0 day
NCI-H526 [31] = experiment: In vivo inhibition of LSD1 in human NCI-H526 cells xenografted in nude mouse assessed as change in TOX3 gene expression measured after 24 hrs post single administration by qRT-PCR analysis; format: functional, organism-based; conditions: dose 0.06-135 mg/kg
NCI-H526 [32] = experiment: In vivo inhibition of LSD1 in human NCI-H526 cells xenografted in nude mouse assessed as change in ZEB1 gene expression measured after 24 hrs post single administration by qRT-PCR analysis; format: functional, organism-based; conditions: dose 0.06-135 mg/kg
NCI-H526 [33] = experiment: In vivo inhibition of LSD1 in human NCI-H526 cells xenografted in nude mouse assessed as change in KIAA1644 gene expression administrated daily for 5 days by qRT-PCR analysis; format: functional, organism-based; conditions: dose 0.02-135 mg/kg, time 5.0 day

D-amino-acid oxidase, sequence (P14920 whole entry): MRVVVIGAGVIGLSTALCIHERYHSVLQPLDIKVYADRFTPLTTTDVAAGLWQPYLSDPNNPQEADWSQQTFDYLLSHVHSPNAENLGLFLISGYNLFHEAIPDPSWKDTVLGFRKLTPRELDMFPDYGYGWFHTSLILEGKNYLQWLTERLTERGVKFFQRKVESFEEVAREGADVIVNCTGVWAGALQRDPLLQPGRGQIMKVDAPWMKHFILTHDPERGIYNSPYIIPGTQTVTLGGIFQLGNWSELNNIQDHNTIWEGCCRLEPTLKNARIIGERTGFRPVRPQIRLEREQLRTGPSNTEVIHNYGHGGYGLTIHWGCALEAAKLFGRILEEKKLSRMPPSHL

SMILES: O=C(O)c1ccc(CN2CCC(CN[C@@H]3C[C@H]3c3ccccc3)CC2)cc1 [GSK2879552]
- Ki (D-amino-acid oxidase): 520 µM
- AUC(0-t) [1]: 853 ng·h/mL
- half-life [2]: 114 min
- Activity [3]: Non-Toxic
- Activity [4]: Non-Toxic
- fold change (FC) [5]: 3.48
- Activity [6]: 0.9
- Activity [7]: 1.17
- Activity [8]: 1.52
- Activity [9]: 1.45
- fold change (FC) [10]: 0.74
- fold change (FC) [11]: 0.69
- fold change (FC) [12]: 0.41
- Activity [13]: 0.28
- Activity [14]: 0.27
- fold change (FC) [15]: 1.11
- Activity [16]: 0.06
- Activity [17]: 0.06
- Activity [18]: 0.09
- fold change (FC) [19]: 1.66
- Activity [20]: 0.52
- fold change (FC) [21]: 1.92
- fold change (FC) [22]: 1.68
- Activity [23]: 0.02
- fold change (FC) [24]: 1.33
- Activity [25]: 2.37
- Activity [26]: Toxic
- Activity [27]: Toxic
- Activity [28]: Toxic
- Activity [29]: Toxic
- inhibition in vivo at 1.5 mg/kg (NCI-H69): 49%
- inhibition in vivo at 1.5 mg/kg (NCI-H1417): 83%
- Activity (NCI-H526 [30]): inactive
- Activity (COLO-668): inactive
- inhibition (NCI-H526 [31]): Dose-Dependent Effect
- inhibition (NCI-H526 [32]): Dose-Dependent Effect
- inhibition (NCI-H526 [33]): Dose-Dependent Effect
